Measurements reported in patent US20260234188A1, “CHEMOKINE-BINDING PEPTIDES” (Oxford University Innovation Limited, priority 2022, published 2026).
Entries after “also recorded” stand apart in the source; their conditions may differ. Ends that are not written are not given here. Peptide text beside a SMILES is read from it.

Key:
[1] = system: panel of 24 biotinylated chemokines; assay: Phage-display screen of HD2 NNK saturation mutagenesis library; assay type: binding, human; details: for Chemokines Bound log2E 1-5 / Chemokines Bound log2E > 5: HD2 saturation mutants, chemokines on streptavidin beads, UniProt entry names
CC and CXC chemokines = assay: Chemokine-induced cell migration assays, pooled over chemokines (meta-analysis); assay type: cell-based, human; details: single HD2 mutations; nine CC and six CXC chemokines
Experimental: FIG. 16. Effect of HD2 alanine mutations on chemotaxis. […] All experiments were performed as three technical and three biological replicates, and individual data points are indicated, and coloured by the chemokine used. Statistically significant differences (compared to control, coloured blue), using Dunnett's test with correction for multiple comparisons, are indicated by asterisks: ****=P≤0.0001, ***=P≤0.001, **=P≤0.01, *=P≤[…] observations per group (three technical and three biological replicates for each chemokine). FIG. 16B, Faceted plots of change in median normalised cell count between alanine mutant and wild-type HD2 peptide obtained in cell migration assays (Y-axis, Δmedian normalised cell count) versus alanine mutated residue (X-axis). Chemokines used for each experiment are indicated in the strip to the right of each plot. Statistically significant differences compared to parental HD2 are shown as red dots. […] Scatterplot of Δmedian normalised cell count (Y-axis, obtained in cell migration assays) versus Δlog 2 E (obtained in phage-display experiments) for peptide:chemokine pairs. Individual data points indicate peptide chemokine pairs for which both cell migration and Δlog 2 E were available. Linear regression plot with 95% confidence interval, Spearman correlation coefficient (R) and statistical significance (p) are shown.
FIG. 19. […] All experiments were performed as at least three technical and three biological replicates, and individual data points are indicated, and coloured by the chemokine used, for all chemokines studied (n=16 chemokines). Statistically significant differences (compared to control, coloured blue), using Dunnett's test with correction for multiple comparisons, are indicated by asterisks: ****=P≤0.0001, ***=P≤0.001, **=P≤0.01, *=P≤0.05.
Briefly, cell migration assays use THP1 cells (human monocyte) and primary human buffy coat white cells (consisting of neutrophil granulocytes, monocytes, and lymphocytes), and activated T-cells. THP1 cells and primary monocytes respond to CCL2, CCL3, CCL5, CCL8 and CXCL4, granulocytes to CXCL1 and CXCL8, activated T-cells to CXCL9/10/11. Assays are performed in 96-well Boyden chambers, and migrated cells counted and characterized using and ATTUNE Flow Cytometer as described. Triplicate assays are performed at the EC80 dose of each chemokine at 10 μM peptide concentration.
The J:CXCR1 cell line was generated by transfecting Jurkat cells by electroporation with PvuI-linearized plasmid D1398 and selecting with blasticidin (Sigma-Aldrich, Cat #203350, […]). […] J:CXCR1 cells were cultured in RPMI-1640 media (Gibco), supplemented with 10% FBS and 5 mM L-Glutamine with blasticidin. For J:CXCR1 migration assays, 300,000 cells/well were added to the top chamber of a 3 μm Transwell insert (Corning) in 50 μL of migration media (RPMI-1640, 0.5% FBS, 4 mM L-Glutamine, 0.05% DMSO). The bottom chamber contained 150 μL of chemokine, with or without peptide. Cells were migrated at 37° C. in 5% CO2 for 4 hours. The plate was incubated on a shaking platform for 10 minutes, 800 rpm, at 37° C., and 150 μL from the bottom of the plate transferred into a U-bottom plate containing 50 μL of migration media.

| Compound | Chemokines Bound log2E 1-5 [1] | Chemokines Bound log2E > 5 [1] | peak log 2 E ([1]; best mutation at each residue) | chemotaxis inhibition compared with HD2, meta-analysis (CC and CXC chemokines) | mean log 2 E compared to parental HD2 ([1]; over XC (CXC/CX3C) chemokines) | mean log 2 E compared to parental HD2 ([1]; over all chemokines) |
| --- | --- | --- | --- | --- | --- | --- |
| CC(C)C[C@H](NC(=O)[C@@H]1CCCN1C(=O)[C@H](C)NC(=O)[C@H](Cc1ccc(O)cc1)NC(=O)[C@H](C)NC(=O)[C@@H](NC(=O)[C@H](Cc1ccc(O)cc1)NC(=O)[C@H](CC(=O)O)NC(=O)[C@H](CC(=O)O)NC(=O)[C@H](CCC(=O)O)NC(=O)[C@@H](N)CCC(=O)O)[C@@H](C)O)C(=O)N[C@H](C(=O)N[C@@H](CS)C(=O)N[C@@H](Cc1ccc(O)cc1)C(=O)N[C@@H](Cc1ccccc1)C(=O)N[C@@H](CS)C(N)=O)[C@@H](C)O [HD2_C16, EEDDYTAYAPLTCYFC] (H-EEDDYTAYAPLTCYFC-NH2; N-terminus assumed) | CCL1, X3CL1, CXL10, CXL11,; also recorded: CXL14 | IL8 | highest peak log 2 E at that residue | significant improvement over HD2 | – | – |
| EEDDWTAYAPLTCYFT-NH2 [HD2_W5, EEDDWTAYAPLTCYFT] | CCL1, CCL11, CCL15, CCL17,; also recorded: CCL18, CCL19, CCL2, CCL22,; also recorded: CCL28, CCL3, CCL4, X3CL1,; also recorded: CXL11, SDF1, IL8 | CXL10, CXL13 | – | significant improvement over HD2 | significant improvement | significant improvement |
| EEDDYTAYWPLTCYFT [A9W] | – | – | – | significant improvement over HD2 | – | – |
| EEDDYWAYAPLTCYFT [HD2_W6] | CCL1, CCL17, CCL18, CCL2,; also recorded: CCL20, CCL3, CCL4, IL8 | CCL19, CCL25,; also recorded: CCL28, X3CL1,; also recorded: CXL10, CXL11,; also recorded: SDF1, CXL13,; also recorded: CXL14 | – | significant improvement over HD2 | significant improvement | – |
